This is an account of results in the supplement of paper PMC10307832.

Holding throughout (assay): relative viability (nuclei count vs DMSO), 5 days (fraction); higher = more cells survive
Compound in test [1]: Cn1nnc2c(C(N)=O)ncn2c1=O [Temozolomide] + O=C(CCCCCCC(=O)Nc1ccccc1)NO [Vorinostat] (partner 1 µM)
Put shortly: (§1)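 Lung cancer cell lines in 1536-well plates got either a single drug or a fixed anchor-drug dose together with five library-drug doses (not always all listed) in √10 steps, by pin tool, on the day after seeding. Nuclei were counted after 5 days, and relative viability is the treated-to-vehicle ratio of nuclei counts. Values are medians of duplicate plates.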

Compound in test [2]: Cn1nnc2c(C(N)=O)ncn2c1=O [Temozolomide] + CC(C)C[C@H](NC(=O)[C@H](Cc1ccccc1)NC(=O)c1cnccn1)B(O)O [Bortezomib] (partner 0.002 µM)
The essentials: as §1

Compound in the test “AZD5582 + Trametinib”: C[C@@H](C(=O)N[C@@H](C1CCCCC1)C(=O)N2CCC[C@H]2C(=O)N[C@@H]3[C@@H](CC4=CC=CC=C34)OCC#CC#CCO[C@@H]5CC6=CC=CC=C6[C@@H]5NC(=O)[C@@H]7CCCN7C(=O)[C@H](C8CCCCC8)NC(=O)[C@H](C)NC)NC [AZD5582] + CC(=O)Nc1cccc(-n2c(=O)n(C3CC3)c(=O)c3c(Nc4ccc(I)cc4F)n(C)c(=O)c(C)c32)c1 [Trametinib] (partner 0.02 µM)
The essentials:
as §1

Compound in the test “AZD5582 + Phenformin”: C[C@@H](C(=O)N[C@@H](C1CCCCC1)C(=O)N2CCC[C@H]2C(=O)N[C@@H]3[C@@H](CC4=CC=CC=C34)OCC#CC#CCO[C@@H]5CC6=CC=CC=C6[C@@H]5NC(=O)[C@@H]7CCCN7C(=O)[C@H](C8CCCCC8)NC(=O)[C@H](C)NC)NC [AZD5582] + N=C(N)NC(=N)NCCc1ccccc1 [Phenformin] (partner 250 µM)
Put shortly: as §1

NCI-H2023: the relative viability in test [1] (first compound 0.2 µM) came to 0.725; in test [1] (first compound 0.6325 µM), 0.676; in test [1] (first compound 2 µM), 0.675; in test [1] (first compound 6.325 µM), 0.502; in test [1] (first compound 20 µM), 0.718; in test [2] (first compound 0.2 µM), 1.01. Besides, the relative viability in test [2] (first compound 0.6325 µM) stood at 0.905; in test [2] (first compound 2 µM), 1.05; in test [2] (first compound 6.325 µM) it was 0.933; in test [2] (first compound 20 µM), 0.855; with AZD5582 + Trametinib (first compound 0.001581 µM) it was 0.421; with AZD5582 + Trametinib (first compound 0.005 µM), 0.525. The relative viability with AZD5582 + Trametinib (first compound 0.01581 µM) amounted to 0.595; with AZD5582 + Trametinib (first compound 0.05 µM) it was 0.36; with AZD5582 + Phenformin (first compound 0.001581 µM), 0.387; with AZD5582 + Phenformin (first compound 0.005 µM) it was 0.409; with AZD5582 + Phenformin (first compound 0.01581 µM) it was 0.348; with AZD5582 + Phenformin (first compound 0.05 µM), 0.408.

With NCI-H2085, the relative viability in test [1] (first compound 0.2 µM) was determined as 0.87; in test [1] (first compound 0.6325 µM), 0.816; in test [1] (first compound 2 µM) it was 0.865; in test [1] (first compound 6.325 µM), 0.76; in test [1] (first compound 20 µM) it was 0.68; in test [2] (first compound 0.2 µM), 0.992. The relative viability was 1.26 in test [2] (first compound 0.6325 µM); 1.04 in test [2] (first compound 2 µM); 1.01 in test [2] (first compound 6.325 µM); 0.888 in test [2] (first compound 20 µM); 0.433 with AZD5582 + Trametinib (first compound 0.001581 µM); 0.643 in the test with AZD5582 + Trametinib (first compound 0.005 µM). In addition, the relative viability is 0.394 with AZD5582 + Trametinib (first compound 0.01581 µM); 0.61 with AZD5582 + Trametinib (first compound 0.05 µM); 0.562 with AZD5582 + Phenformin (first compound 0.001581 µM); 0.623 with AZD5582 + Phenformin (first compound 0.005 µM); 0.561 with AZD5582 + Phenformin (first compound 0.01581 µM); 0.542 with AZD5582 + Phenformin (first compound 0.05 µM).

In the case of NCI-H2087, the relative viability in test [1] (first compound 0.2 µM) is 0.702; in test [1] (first compound 0.6325 µM), 0.651; in test [1] (first compound 2 µM), 0.804; in test [1] (first compound 6.325 µM), 0.741; in test [1] (first compound 20 µM), 0.822; in test [2] (first compound 0.2 µM) it was 0.973. Further, the relative viability worked out at 0.918 in test [2] (first compound 0.6325 µM); 0.738 in test [2] (first compound 2 µM); 0.681 in test [2] (first compound 6.325 µM); 0.948 in test [2] (first compound 20 µM); 0.184 with AZD5582 + Trametinib (first compound 0.001581 µM); 0.244 with AZD5582 + Trametinib (first compound 0.005 µM). Further, the relative viability in the test with AZD5582 + Trametinib (first compound 0.01581 µM) came to 0.163; with AZD5582 + Trametinib (first compound 0.05 µM) it was 0.22; with AZD5582 + Phenformin (first compound 0.001581 µM), 0.423; with AZD5582 + Phenformin (first compound 0.005 µM), 0.49; in the test with AZD5582 + Phenformin (first compound 0.01581 µM), 0.443; in the test with AZD5582 + Phenformin (first compound 0.05 µM), 0.464.

Turning to NCI-H2126, the relative viability worked out at 0.632 in test [1] (first compound 0.2 µM); 0.761 in test [1] (first compound 0.6325 µM); 0.817 in test [1] (first compound 2 µM); 0.752 in test [1] (first compound 6.325 µM); 0.624 in test [1] (first compound 20 µM); 1.13 in test [2] (first compound 0.2 µM). Also, the relative viability in test [2] (first compound 0.6325 µM) was 1.15; in test [2] (first compound 2 µM), 1.1; in test [2] (first compound 6.325 µM) it was 1.1; in test [2] (first compound 20 µM) it was 1.08; with AZD5582 + Trametinib (first compound 0.001581 µM), 0.581; with AZD5582 + Trametinib (first compound 0.005 µM), 0.594. For the same cell line, the relative viability came to 0.594 with AZD5582 + Trametinib (first compound 0.01581 µM); 0.614 with AZD5582 + Trametinib (first compound 0.05 µM); 0.489 with AZD5582 + Phenformin (first compound 0.001581 µM); 0.567 in the test with AZD5582 + Phenformin (first compound 0.005 µM); 0.497 with AZD5582 + Phenformin (first compound 0.01581 µM); 0.512 with AZD5582 + Phenformin (first compound 0.05 µM).

With NCI-H2228, the relative viability is 0.978 in test [1] (first compound 0.2 µM); 0.443 in test [1] (first compound 0.6325 µM); 0.695 in test [1] (first compound 2 µM); 0.175 in test [1] (first compound 6.325 µM); 0.486 in test [1] (first compound 20 µM); 1.15 in test [2] (first compound 0.2 µM). The relative viability was determined as 1.03 in test [2] (first compound 0.6325 µM); 1.02 in test [2] (first compound 2 µM); 0.956 in test [2] (first compound 6.325 µM); 1.02 in test [2] (first compound 20 µM); 0.529 with AZD5582 + Trametinib (first compound 0.001581 µM); 0.434 with AZD5582 + Trametinib (first compound 0.005 µM). Also, the relative viability with AZD5582 + Trametinib (first compound 0.01581 µM) is 0.714; with AZD5582 + Trametinib (first compound 0.05 µM), 0.161; with AZD5582 + Phenformin (first compound 0.001581 µM) it was 0.335; in the test with AZD5582 + Phenformin (first compound 0.005 µM), 0.296; in the test with AZD5582 + Phenformin (first compound 0.01581 µM) it was 0.321; in the test with AZD5582 + Phenformin (first compound 0.05 µM) it was 0.0886.

NCI-H2347: the relative viability in test [1] (first compound 0.2 µM) was determined as 0.476; in test [1] (first compound 0.6325 µM), 0.668; in test [1] (first compound 2 µM), 0.674; in test [1] (first compound 6.325 µM), 0.629; in test [1] (first compound 20 µM) it was 0.635; in test [2] (first compound 0.2 µM), 1.34. For the same cell line, the relative viability in test [2] (first compound 0.6325 µM) worked out at 1.05; in test [2] (first compound 2 µM) it was 0.995; in test [2] (first compound 6.325 µM), 0.836; in test [2] (first compound 20 µM), 1.07; in the test with AZD5582 + Trametinib (first compound 0.001581 µM), 0.327; in the test with AZD5582 + Trametinib (first compound 0.005 µM), 0.266. The relative viability with AZD5582 + Trametinib (first compound 0.01581 µM) amounted to 0.264; in the test with AZD5582 + Trametinib (first compound 0.05 µM), 0.311; with AZD5582 + Phenformin (first compound 0.001581 µM) it was 0.356; with AZD5582 + Phenformin (first compound 0.005 µM), 0.352; with AZD5582 + Phenformin (first compound 0.01581 µM), 0.38; with AZD5582 + Phenformin (first compound 0.05 µM), 0.239.

With NCI-H2405, the relative viability in test [1] (first compound 0.2 µM) was 1.25; in test [1] (first compound 0.6325 µM), 1.08; in test [1] (first compound 2 µM), 1.05; in test [1] (first compound 6.325 µM), 0.99; in test [1] (first compound 20 µM), 0.995; in test [2] (first compound 0.2 µM), 1.07. Besides, the relative viability in test [2] (first compound 0.6325 µM) amounted to 0.976; in test [2] (first compound 2 µM) it was 1.01; in test [2] (first compound 6.325 µM) it was 0.715; in test [2] (first compound 20 µM), 0.954; with AZD5582 + Trametinib (first compound 0.001581 µM) it was 0.705; in the test with AZD5582 + Trametinib (first compound 0.005 µM), 0.739. Further, the relative viability in the test with AZD5582 + Trametinib (first compound 0.01581 µM) amounted to 0.545; with AZD5582 + Trametinib (first compound 0.05 µM) it was 0.709; with AZD5582 + Phenformin (first compound 0.001581 µM), 0.375; with AZD5582 + Phenformin (first compound 0.005 µM), 0.469; with AZD5582 + Phenformin (first compound 0.01581 µM), 0.327; in the test with AZD5582 + Phenformin (first compound 0.05 µM), 0.473.
